Measurements from patent US20130204033A1, “ANTIPROLIFERATIVE COMPOUNDS, CONJUGATES THEREOF, METHODS THEREFOR, AND USES THEREOF” (Medarex, Inc., priority 2009, published 2013).

Columns and labels:
Assay type in all cases: cell-based, human
[1] = system: HL-60; experiment: ATP luminescence proliferation assay, HL-60
Experimental: (§1) This example generally describes the procedures used to assay the antiproliferative activity of compounds of this invention or their conjugates. Human tumor cell lines were obtained from the American Type Culture Collection (ATCC), P.O. Box 1549, Manassas, Va. 20108, USA, and cultured according to instruction from the ATCC. Cells were seeded at 1.0×10^3 or 1.0×10^4 cells/well in 96-well plates for 3 h for ATP assays or ^3H thymidine assays, respectively. 1:3 serial dilutions of free (unconjugated) compounds or their conjugates were added to the wells. Plates were allowed to incubate for 24 to 72 h. The ^3H thymidine plates were pulsed with 1.0 μCi of ^3H-thymidine per well for the last 24 hours of the total incubation period, harvested, and read on a Top Count Scintillation Counter (Packard Instruments, Meriden, Conn.). ATP levels in the ATP plates were measured using the […]-GLO® Luminescent Cell Viability kit following the manufacturer's manual and read on a GLOMAX® 20/20 luminometer (both from Promega, Madison, Wis., USA). The EC50 values—the concentration at which an agent inhibits or reduces cell proliferation by 50% —were determined using PRISM™ software, version 4.0 (GraphPad Software, La Jolla, Calif., USA).
(§2) Using the ^3H thymidine or the ATP luminescence assay, or both, the activities of compounds of this invention were assayed against the following cancer cell lines: HCT-15 (colorectal cancer, multi-drug resistant (MDR)); Hep3B (liver cancer); LNCaP (prostate cancer, androgen receptor positive (AR^+)); MDA-MB-231 (breast cancer, estrogen receptor, progesterone receptor, and Her2 negative (triple negative)); A2058 (melanoma); U-87 MG (glioblastoma); NCI-H460 (NSCLC); A549 (NSCLC); HPAC (pancreatic cancer, primary); PC3 (prostate cancer, AR); BT474 (breast cancer, Her2 highly positive (Her2hi)); SKOV3 (ovarian cancer, Her2hi); 786-O (renal cancer); UO-31 (renal cancer, MDR); NCI-H740 (SCLC); DMS53 (SCLC); SK-BR3 (breast cancer, Her2hi); ZR-75 (breast cancer, estrogen receptor positive); OVCAR3 (ovarian cancer); HL-60 (APL); OVCAR8/Adr (ovarian cancer, MDR); CEM-Cl (ALL); Nomo-1 (AML); RPMI-8226 (MM)); Raji (lymphoma); SW-480 (colorectal cancer, metastatic); SW-620 (colorectal cancer); and H226 (lung cancer). (Not all compounds were assayed against all cell lines.)
(§3) FIGS. 12a and 12b show illustrative plots for ATP luminescence proliferation assays for a second set of compounds of this invention, against HL-60 and 786-O cells, respectively, with an incubation period of 72 h. FIGS. 12c and 12d show the plots for ^3H thymidine proliferation assays for the same set of compounds, again against HL-60 and 786-O cells, respectively, with a 72 h incubation period. In each instance, doxorubicin was used as a comparative compound.
(§4) Table 3 provides the data for the ATP luminescence proliferation assays, with an incubation period of 48, 72, or 96 h, as noted.

[2] = system: OVCAR3; experiment: ATP luminescence proliferation assay, OVCAR3; conditions: ATP luminescence, OVCAR3, 48 h incubation; read-out: EC50 OVCAR3 (48 h)
Experimental: as §1, §2, §4

[3] = system: 786-O; experiment: ATP luminescence proliferation assay, 786-O
Experimental: as §1, §2, §3, §4

[4] = system: OVCAR8/Adr; experiment: ATP luminescence proliferation assay, OVCAR8/Adr; conditions: 48 h incubation period, read-out: EC50 against the OVACAR8/Adr cell line
Experimental: as §1, §2, §4

[5] = system: HCT-15; experiment: ATP luminescence proliferation assay, HCT-15; conditions: ATP luminescence, HCT-15, 72 h incubation; read-out: EC50 HCT-15 (72 h)
Experimental: as §1, §2, §4

[6] = system: H226; experiment: ATP luminescence proliferation assay, H226; conditions: 72 h incubation period, read-out: EC50 against the H226 cell line
Experimental: as §1, with “The EC50 values—the concentration at which an agent inhibits or reduces cell proliferation by 50% —were determined using PRISM™ software, version 4.0 (GraphPad Software, La Jolla, Calif., USA).” left out
as §2, with “(Not all compounds were assayed against all cell lines.)” left out

[7] = system: HL-60; experiment: 3H thymidine proliferation assay, HL-60; conditions: Homo sapiens, HL-60, read-out: EC50, HL-60, 3H thymidine method, 72 h incubation
Experimental: as §1, §2
(§5) Table 2 provides the data for proliferation assays using the ^3H thymidine method, with an incubation period of 72 h.

[8] = system: 786-O; experiment: 3H thymidine proliferation assay, 786-O; conditions: Homo sapiens, 786-0, read-out: EC50, 786-O, 3H thymidine method, 72 h incubation
Experimental: as §1, §2, §5

[9] = system: BT474; experiment: 3H thymidine proliferation assay, BT474; conditions: Homo sapiens, BT-474, read-out: EC50, BT474, 3H thymidine method, 72 h incubation
Experimental: as §1, §2, §5

[10] = system: Raji; experiment: 3H thymidine proliferation assay, Raji; conditions: Homo sapiens, Raji, read-out: EC50, Raji, 3H thymidine method, 72 h incubation
Experimental: as §1, §2, §5

[11] = system: DMS53; experiment: 3H thymidine proliferation assay, DMS53; conditions: Homo sapiens, DMS-53, read-out: EC50, DMS53, 3H thymidine method, 72 h incubation
Experimental: as §1, §2, §5

[12] = system: ZR-75; experiment: 3H thymidine proliferation assay, ZR-75; conditions: Homo sapiens, ZR75, read-out: EC50, ZR-75, 3H thymidine method, 72 h incubation
Experimental: as §1, §2, §5

[13] = system: OVCAR3; experiment: 3H thymidine proliferation assay, OVCAR3; conditions: Homo sapiens, OVCAR-3, read-out: EC50, OVCAR3, 3H thymidine method, 72 h incubation
Experimental: as §1, §2, §5

[14] = system: NCI-H460; experiment: 3H thymidine proliferation assay, NCI-H460; conditions: Homo sapiens, NCI-H460, read-out: EC50, NCI-H460, 3H thymidine method, 72 h incubation
Experimental: as §1, §2, §5

[15] = system: A2058; experiment: 3H thymidine proliferation assay, A2058; conditions: Homo sapiens, A2058; 3H thymidine method, 72 h incubation
Experimental: as §1, §2, §5

[16] = system: Hep3B; experiment: 3H thymidine proliferation assay, Hep3B; conditions: Homo sapiens, Hep3B, read-out: EC50, Hep3B, 3H thymidine method, 72 h incubation
Experimental: as §1, §2, §5

[17] = system: OVCAR8; experiment: 3H thymidine proliferation assay, OVCAR8; conditions: Homo sapiens, OVCAR-8, read-out: EC50, OVCAR8, 3H thymidine method, 72 h incubation
Experimental: as §1, §2, §5

[18] = system: SK-BR3; experiment: 3H thymidine proliferation assay, SK-BR3; conditions: Homo sapiens, SK-BR-3; 3H thymidine method, 72 h incubation
Experimental: as §1, §2, §5

[19] = system: UO-31; experiment: 3H thymidine proliferation assay, UO-31; conditions: Homo sapiens, UO-31, read-out: EC50, UO-31, 3H thymidine method, 72 h incubation
Experimental: as §1, §2, §5

[20] = system: RPMI-8226; experiment: 3H thymidine proliferation assay, RPMI-8226; conditions: Homo sapiens, RPMI-8226, read-out: EC50, RPMI-8226, 3H thymidine method, 72 h incubation
Experimental: as §1, §2, §5

[21] = system: LNCaP; experiment: 3H thymidine proliferation assay, LNCaP; conditions: Homo sapiens, LNCaP, read-out: EC50, LNCaP, 3H thymidine method, 72 h incubation
Experimental: as §1, §2, §5

[22] = system: PC3; experiment: 3H thymidine proliferation assay, PC3; conditions: Homo sapiens, PC-3, read-out: EC50, PC3, 3H thymidine method, 72 h incubation
Experimental: as §1, §2, §5

[23] = system: HPAC; experiment: 3H thymidine proliferation assay, HPAC; conditions: Homo sapiens, HPAC, read-out: EC50, HPAC, 3H thymidine method, 72 h incubation
Experimental: as §1, §2, §5

[24] = system: SKOV3; experiment: 3H thymidine proliferation assay, SKOV3; conditions: Homo sapiens, SK-OV-3, read-out: EC50, SKOV3, 3H thymidine method, 72 h incubation
Experimental: as §1, §2, §5

[25] = system: MDA-MB-231; experiment: 3H thymidine proliferation assay, MDA-MB-231; conditions: Homo sapiens, MDA-MB-231, read-out: EC50, MDA-MB-231, 3H thymidine method, 72 h incubation
Experimental: as §1, §2, §5

[26] = system: H740; experiment: 3H thymidine proliferation assay, H740; conditions: Homo sapiens, read-out: EC50, H740, 3H thymidine method, 72 h incubation
Experimental: as §1, §2, §5

[27] = system: Nomo-1; experiment: 3H thymidine proliferation assay, Nomo-1; conditions: Homo sapiens, NOMO-1, read-out: EC50, Nomo-1, 3H thymidine method, 72 h incubation
Experimental: as §1, §2, §5

[28] = system: A549; experiment: 3H thymidine proliferation assay, A549; conditions: Homo sapiens, A549, read-out: EC50, A549, 3H thymidine method, 72 h incubation
Experimental: as §1, §2, §5

[29] = system: CEM-C1; experiment: 3H thymidine proliferation assay, CEM-C1; conditions: Homo sapiens, CEM/C1, read-out: EC50, CEM-C1, 3H thymidine method, 72 h incubation
Experimental: as §1, §2, §5

[30] = system: HCT-15; experiment: 3H thymidine proliferation assay, HCT-15; conditions: Homo sapiens, HCT-15, read-out: EC50, HCT-15, 3H thymidine method, 72 h incubation
Experimental: as §1, §2, §5

[31] = system: U-87 MG; experiment: 3H thymidine proliferation assay, U-87 MG; conditions: Homo sapiens, U-87 MG, read-out: EC50, U-87 MG, 3H thymidine method, 72 h incubation
Experimental: as §1, §2, §5

[32] = ATP luminescence, HL-60, 48 h incubation, read-out: EC50 HL-60 (48 h)
[33] = ATP luminescence, 786-O, 72 h incubation, read-out: EC50 786-O (72 h)

In the case of `CC[C@H](C)[C@H](NC(=O)[C@H]1CCCCN1C)C(=O)N(C)[C@H](C[C@@H](OC(C)=O)c1nc(C(=O)N[C@@H](Cc2ccc(N)cc2)C[C@@H](C)C(=O)O)cs1)C(C)C` [Compound 84b], the EC50 [1, 32] is reported as 16 to 27 nM, the EC50 [2] is reported as 4.91 nM and the EC50 ([3]; ATP luminescence, 786-O, 48 h incubation, read-out: EC50 786-O (48 h)) is reported as 4.1 nM. The EC50 [4] was 47.2 nM and the EC50 [5] was 22.8 nM.

With `CCOC(=O)C(C)C[C@H](Cc1ccc(N)cc1)NC(=O)c1csc([C@@H](C[C@H](C(C)C)N(COC(=O)CC(C)C)C(=O)[C@@H](NC(=O)[C@H]2CCCCN2C)[C@@H](C)CC)OC)n1` (stereo partly drawn) [Compound 133] the EC50 [3, 33] was 4.17 nM.

`CC[C@H](C)[C@H](NC(=O)[C@H]1CCCCN1C)C(=O)N(C)[C@H](C[C@@H](OC(C)=O)c1nc(C(=O)N[C@@H](Cc2ccc(N)cc2)CC(C)C(=O)OC)cs1)C(C)C` (stereo partly drawn) [Compound 36a] gave an EC50 [1, 32] of 0.048 nM, an EC50 [3, 33] of 0.434 nM and an EC50 [4] of 17.1 nM. For the same compound, the EC50 [6] was 0.307 nM.

In the case of `CC[C@H](C)[C@H](NC(=O)[C@H]1CCCCN1C)C(=O)N(COC)[C@H](C[C@@H](OC(C)=O)c1nc(C(=O)N[C@@H](Cc2ccccc2)C(=O)OC)cs1)C(C)C` [(III-q)], the EC50 ([1]; Homo sapiens, HL-60, 72 h, read-out: EC50 HL-60 (72 h), ATP luminescence, HL-60, 72 h incubation) is reported as 14.3 nM, the EC50 [7] is reported as 15.1 nM and the EC50 ([3]; Homo sapiens, 786-0, 72 h, read-out: EC50 786-O (72 h), ATP luminescence, 786-O, 72 h incubation) is reported as 104 nM. The EC50 [8] was 7.61 nM.

Work on `CC[C@H](C)[C@H](NC(=O)[C@H]1CCCCN1C)C(=O)N(C)[C@H](C[C@@H](OC)c1nc(C(=O)N[C@@H](C)C(=O)N[C@@H](Cc2ccccc2)C(=O)OC)cs1)C(C)C` [Compound 26a] yielded an EC50 [9] of 7 nM, an EC50 [10] of 20 nM and an EC50 [11] greater than 100 nM. It also gave an EC50 [12] of 56 nM, an EC50 [13] of 21 nM and an EC50 [14] greater than 100 nM. The EC50 [15] was greater than 100 nM, the EC50 [16] was 36 nM and the EC50 [17] was 100 nM. It also gave an EC50 [7] of 10 nM, an EC50 [18] of 158 nM and an EC50 [19] greater than 100 nM. The EC50 [20] was 22 nM, the EC50 [21] was 80 nM and the EC50 [22] was greater than 100 nM. For the same compound, the EC50 [23] was greater than 100 nM, the EC50 [24] was 47 nM and the EC50 [25] was greater than 100 nM. It also gave an EC50 [8] greater than 100 nM, an EC50 [26] of 3.2 nM and an EC50 [27] of 2 nM. For the same compound, the EC50 [28] was greater than 100 nM, the EC50 [29] was 10 nM and the EC50 [30] was greater than 100 nM. For the same compound, the EC50 [31] was 71 nM.
